A short description of this series: MALDI-TOF screening of Ni^2+ dependent hydrolysis in a combinatorial peptide library. The class given is physicochemical. Particulars: Ni^2+ 2 mM, pH 8.2, 10 mM Tris, score=24/tm. In short, it runs like this: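 MALDI-TOF spectra taken at 2, 4, 6 and 8 h tracked the appearance of Ser/Thr-X-His-Z-Lys-Phe-Leu-NH2 cleavage products and the fall in substrate signals. Reactions: 1 mM peptide mixture, 2 mM Ni^2+, 10 mM Tris pH 8.2, at 37 or 45 °C; X/Z substitutions ranked by summed scores.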

The mark [1] stands for this setting: CH3CO-Gly-Ala-Thr-X-His-Z-Lys-Phe-Leu-NH2 library, 37° C.
Where [2] appears, read: CH3CO-Gly-Ala-Thr-X-His-Z-Lys-Phe-Leu-NH2 library, 45° C.
The mark [3] stands for this setting: CH3CO-Gly-Ala-Ser-X-His-Z-Lys-Phe-Leu-NH2 library, 37° C.
The mark [4] stands for this setting: CH3CO-Gly-Ala-Ser-X-His-Z-Lys-Phe-Leu-NH2 library, 45° C.

On to Ac-GATMHVKFL-NH2 [TMHV], for which the “hydrolysis score from MALDI-TOF screening” value (“hydrolysis score” for short) by setting is: under setting [1], 0 (a score of 0 if no trace of the product of hydrolysis was seen after 8 hours of incubation); under setting [2], 0 (a score of 0 if no trace of the product of hydrolysis was seen after 8 hours of incubation).

Ac-GATMHYKFL-NH2 [TMHY]: the “hydrolysis score” value under setting [1] is on record as 0 (a score of 0 if no trace of the product of hydrolysis was seen after 8 hours of incubation) and the “hydrolysis score” value under setting [2] is 0 (a score of 0 if no trace of the product of hydrolysis was seen after 8 hours of incubation).

In the case of Ac-GASGHPKFL-NH2 [SGHP], the “hydrolysis score” value under setting [3] was 0 (a score of 0 if no trace of the product of hydrolysis was seen after 8 hours of incubation) and the “hydrolysis score” value under setting [4] is 0 (a score of 0 if no trace of the product of hydrolysis was seen after 8 hours of incubation).

As to Ac-GATYHHKFL-NH2 [TYHH], the “hydrolysis score” value by setting is: under setting [1], 0 (a score of 0 if no trace of the product of hydrolysis was seen after 8 hours of incubation); under setting [2], 0 (a score of 0 if no trace of the product of hydrolysis was seen after 8 hours of incubation).

Ac-GASHHPKFL-NH2 [SHHP]: the “hydrolysis score” value by setting is: under setting [3], 0 (a score of 0 if no trace of the product of hydrolysis was seen after 8 hours of incubation); under setting [4], 0 (a score of 0 if no trace of the product of hydrolysis was seen after 8 hours of incubation).

Turning to Ac-GASYHKKFL-NH2 [SYHK], the “hydrolysis score” value under setting [3] is reported as 4 (a score of 4 for detection at 6 hours) and the “hydrolysis score” value under setting [4] is 6 (a score of 6 for detection at 4 hours).

Regarding Ac-GATGHWKFL-NH2 [TGHW], the “hydrolysis score” value under setting [1] is recorded as 0 (a score of 0 if no trace of the product of hydrolysis was seen after 8 hours of incubation) and the “hydrolysis score” value under setting [2] was 0 (a score of 0 if no trace of the product of hydrolysis was seen after 8 hours of incubation).

Regarding Ac-GASPHVKFL-NH2 [SPHV], the “hydrolysis score” value by setting is: under setting [3], 0 (a score of 0 if no trace of the product of hydrolysis was seen after 8 hours of incubation); under setting [4], 0 (a score of 0 if no trace of the product of hydrolysis was seen after 8 hours of incubation).

For the substance Ac-GATPHYKFL-NH2 [TPHY], the “hydrolysis score” value under setting [2] is recorded as 0 (a score of 0 if no trace of the product of hydrolysis was seen after 8 hours of incubation).

On to Ac-GASRHSKFL-NH2 [SRHS], for which the “hydrolysis score” value is, setting by setting: under setting [3], 3 (a score of 3 for detection at 8 hours); under setting [4], 4 (a score of 4 for detection at 6 hours).

In the case of Ac-GATLHWKFL-NH2 [TLHW], the “hydrolysis score” value was 3 (a score of 3 for detection at 8 hours) under setting [1] and 3 (a score of 3 for detection at 8 hours) under setting [2].

For Ac-GATMHMKFL-NH2 [TMHM], the “hydrolysis score” value was 0 (a score of 0 if no trace of the product of hydrolysis was seen after 8 hours of incubation) under setting [1] and 0 (a score of 0 if no trace of the product of hydrolysis was seen after 8 hours of incubation) under setting [2].

On to Ac-GATRHIKFL-NH2 [TRHI], for which the “hydrolysis score” value is, setting by setting: under setting [1], 6 (a score of 6 for detection at 4 hours); under setting [2], 12 (a score of 12, if it was seen to be partially hydrolysed at 2 hours).

Regarding Ac-GASMHVKFL-NH2 [SMHV], the “hydrolysis score” value was 3 (a score of 3 for detection at 8 hours) under setting [3] and 6 (a score of 6 for detection at 4 hours) under setting [4].

As to Ac-GATKHSKFL-NH2 [TKHS], the “hydrolysis score” value runs as follows: under setting [1], 0 (a score of 0 if no trace of the product of hydrolysis was seen after 8 hours of incubation); under setting [2], 0 (a score of 0 if no trace of the product of hydrolysis was seen after 8 hours of incubation).

Turning to Ac-GATTHRKFL-NH2 [TTHR], the “hydrolysis score” value by setting is: under setting [1], 0 (a score of 0 if no trace of the product of hydrolysis was seen after 8 hours of incubation); under setting [2], 3 (a score of 3 for detection at 8 hours).

As to Ac-GASPHLKFL-NH2 [SPHL], the “hydrolysis score” value under setting [3] is given as 0 (a score of 0 if no trace of the product of hydrolysis was seen after 8 hours of incubation) and the “hydrolysis score” value under setting [4] is on record as 0 (a score of 0 if no trace of the product of hydrolysis was seen after 8 hours of incubation).

As to Ac-GASSHNKFL-NH2 [SSHN], the “hydrolysis score” value under setting [3] is 0 (a score of 0 if no trace of the product of hydrolysis was seen after 8 hours of incubation) and the “hydrolysis score” value under setting [4] is on record as 0 (a score of 0 if no trace of the product of hydrolysis was seen after 8 hours of incubation).

On to Ac-GATVHMKFL-NH2 [TVHM], for which the “hydrolysis score” value was 0 (a score of 0 if no trace of the product of hydrolysis was seen after 8 hours of incubation) under setting [1] and 0 (a score of 0 if no trace of the product of hydrolysis was seen after 8 hours of incubation) under setting [2].

Turning to Ac-GATSHKKFL-NH2 [TSHK], the “hydrolysis score” value by setting is: under setting [1], 0 (a score of 0 if no trace of the product of hydrolysis was seen after 8 hours of incubation); under setting [2], 0 (a score of 0 if no trace of the product of hydrolysis was seen after 8 hours of incubation).

In the case of Ac-GASHHYKFL-NH2 [SHHY], the “hydrolysis score” value is given as 3 (a score of 3 for detection at 8 hours) under setting [3] and 4 (a score of 4 for detection at 6 hours) under setting [4].

In the case of Ac-GASQHDKFL-NH2 [SQHD], the “hydrolysis score” value by setting is: under setting [3], 0 (a score of 0 if no trace of the product of hydrolysis was seen after 8 hours of incubation); under setting [4], 0 (a score of 0 if no trace of the product of hydrolysis was seen after 8 hours of incubation).

For the substance Ac-GATLHLKFL-NH2 [TLHL], the “hydrolysis score” value under setting [1] was 0 (a score of 0 if no trace of the product of hydrolysis was seen after 8 hours of incubation) and the “hydrolysis score” value under setting [2] was 0 (a score of 0 if no trace of the product of hydrolysis was seen after 8 hours of incubation).

In the case of Ac-GATKHNKFL-NH2 [TKHN], the “hydrolysis score” value reads like this: under setting [1], 0 (a score of 0 if no trace of the product of hydrolysis was seen after 8 hours of incubation); under setting [2], 0 (a score of 0 if no trace of the product of hydrolysis was seen after 8 hours of incubation).

With Ac-GASNHAKFL-NH2 [SNHA], the “hydrolysis score” value is 0 (a score of 0 if no trace of the product of hydrolysis was seen after 8 hours of incubation) under setting [3] and 0 (a score of 0 if no trace of the product of hydrolysis was seen after 8 hours of incubation) under setting [4].

Ac-GASPHFKFL-NH2 [SPHF]: the “hydrolysis score” value under setting [3] is 0 (a score of 0 if no trace of the product of hydrolysis was seen after 8 hours of incubation) and the “hydrolysis score” value under setting [4] is reported as 0 (a score of 0 if no trace of the product of hydrolysis was seen after 8 hours of incubation).

Turning to Ac-GASVHIKFL-NH2 [SVHI], the “hydrolysis score” value under setting [3] was 3 (a score of 3 for detection at 8 hours) and the “hydrolysis score” value under setting [4] is given as 3 (a score of 3 for detection at 8 hours).

In the case of Ac-GATHHYKFL-NH2 [THHY], the “hydrolysis score” value under setting [1] is listed as 0 (a score of 0 if no trace of the product of hydrolysis was seen after 8 hours of incubation) and the “hydrolysis score” value under setting [2] is recorded as 6 (a score of 6 for detection at 4 hours).

Consider Ac-GASPHQKFL-NH2 [SPHQ], for which the “hydrolysis score” value under setting [3] is listed as 0 (a score of 0 if no trace of the product of hydrolysis was seen after 8 hours of incubation) and the “hydrolysis score” value under setting [4] is 0 (a score of 0 if no trace of the product of hydrolysis was seen after 8 hours of incubation).

On to Ac-GATQHQKFL-NH2 [TQHQ], for which the “hydrolysis score” value is on record as 0 (a score of 0 if no trace of the product of hydrolysis was seen after 8 hours of incubation) under setting [1] and 0 (a score of 0 if no trace of the product of hydrolysis was seen after 8 hours of incubation) under setting [2].

For the substance Ac-GATWHEKFL-NH2 [TWHE], the “hydrolysis score” value is recorded as 0 (a score of 0 if no trace of the product of hydrolysis was seen after 8 hours of incubation) under setting [1] and 0 (a score of 0 if no trace of the product of hydrolysis was seen after 8 hours of incubation) under setting [2].

Consider Ac-GATSHRKFL-NH2 [TSHR], for which the “hydrolysis score” value runs as follows: under setting [1], 0 (a score of 0 if no trace of the product of hydrolysis was seen after 8 hours of incubation); under setting [2], 0 (a score of 0 if no trace of the product of hydrolysis was seen after 8 hours of incubation).

On to Ac-GASVHYKFL-NH2 [SVHY], for which the “hydrolysis score” value under setting [3] is reported as 0 (a score of 0 if no trace of the product of hydrolysis was seen after 8 hours of incubation) and the “hydrolysis score” value under setting [4] is reported as 3 (a score of 3 for detection at 8 hours).

Ac-GATMHGKFL-NH2 [TMHG]: the “hydrolysis score” value is 0 (a score of 0 if no trace of the product of hydrolysis was seen after 8 hours of incubation) under setting [1] and 0 (a score of 0 if no trace of the product of hydrolysis was seen after 8 hours of incubation) under setting [2].

With Ac-GASNHYKFL-NH2 [SNHY], the “hydrolysis score” value by setting is: under setting [3], 3 (a score of 3 for detection at 8 hours); under setting [4], 3 (a score of 3 for detection at 8 hours).

The values above are taken from patent US8969516B2, “Method of hydrolysis of peptide bond” (priority 2006, dated 2015).
